Series [1] deals with T1, CYP 2C9 (Homo sapiens, UniProt P11712).
T1 construct: from tissue; host or cells: human liver microsomes
The series is described as follows: CYP inhibition in human liver microsomes, 2C9. Type of series: in vitro ADME. The note with it: pH 7.4, @ 10 μM concn. The procedure, abridged:
(§1)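 Human liver microsomes in 100 mM phosphate pH 7.4 with CYP-specific probe substrate were incubated with test compound at […] and 10 μM, started with 1 mM NADPH at 37° C. Reactions were stopped with acetonitrile, and marker-reaction metabolites were quantified by LC-MS/MS. Final solvent was ≤0.2%.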
(In general: Microsomes from liver hold many membrane-bound enzymes, among them those of drug oxidation.)

For series [2], the target named is T2, recombinant purified human BTK (Homo sapiens, UniProt Q06187).
T2 construct: purchased SignalChem, USA
T2 sequence (Q06187 whole entry): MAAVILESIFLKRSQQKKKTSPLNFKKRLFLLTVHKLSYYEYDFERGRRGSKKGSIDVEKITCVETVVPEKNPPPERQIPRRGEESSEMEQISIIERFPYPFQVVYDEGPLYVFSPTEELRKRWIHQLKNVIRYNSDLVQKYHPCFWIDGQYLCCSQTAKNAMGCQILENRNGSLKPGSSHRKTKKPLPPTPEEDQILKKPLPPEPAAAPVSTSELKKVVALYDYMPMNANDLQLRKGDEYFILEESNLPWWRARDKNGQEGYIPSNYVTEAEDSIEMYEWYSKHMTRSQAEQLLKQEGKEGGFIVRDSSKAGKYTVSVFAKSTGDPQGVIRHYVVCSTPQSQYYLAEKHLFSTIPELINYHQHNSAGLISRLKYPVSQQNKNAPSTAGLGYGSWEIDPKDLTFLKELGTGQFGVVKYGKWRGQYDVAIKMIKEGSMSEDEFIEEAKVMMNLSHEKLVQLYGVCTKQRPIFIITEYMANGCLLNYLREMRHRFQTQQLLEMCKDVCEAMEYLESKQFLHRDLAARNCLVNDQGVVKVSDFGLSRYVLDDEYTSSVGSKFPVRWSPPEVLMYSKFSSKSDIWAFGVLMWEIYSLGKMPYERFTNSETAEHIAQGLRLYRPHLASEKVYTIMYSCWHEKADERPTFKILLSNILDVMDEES
The series is described as follows: In vitro BTK kinase assay on ADP Glo platform. Format: biochemical. The note with it: 2 hr room temperature, read-out: In-vitro BTK inhibitory activity: IC50. Put shortly:
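Recombinant human BTK (3 ng/reaction) with compound dilutions in Tris pH 7.5, MgCl2/MnCl2, BSA, DTT; started with 50 µM ATP (final) and polyGln4Tyr1 substrate, 2 h at room temperature. ADP formed detected by ADP-Glo luminescence; IC50 by nonlinear fit versus uninhibited enzyme as 100%.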
(ADP-Glo turns the ADP formed in a reaction into a luminescent signal.)

Series [3] has as its target T3, CYP 1A2 (Homo sapiens, UniProt P05177).
T3 construct: from tissue; host or cells: human liver microsomes
T3 sequence (P05177 1-516): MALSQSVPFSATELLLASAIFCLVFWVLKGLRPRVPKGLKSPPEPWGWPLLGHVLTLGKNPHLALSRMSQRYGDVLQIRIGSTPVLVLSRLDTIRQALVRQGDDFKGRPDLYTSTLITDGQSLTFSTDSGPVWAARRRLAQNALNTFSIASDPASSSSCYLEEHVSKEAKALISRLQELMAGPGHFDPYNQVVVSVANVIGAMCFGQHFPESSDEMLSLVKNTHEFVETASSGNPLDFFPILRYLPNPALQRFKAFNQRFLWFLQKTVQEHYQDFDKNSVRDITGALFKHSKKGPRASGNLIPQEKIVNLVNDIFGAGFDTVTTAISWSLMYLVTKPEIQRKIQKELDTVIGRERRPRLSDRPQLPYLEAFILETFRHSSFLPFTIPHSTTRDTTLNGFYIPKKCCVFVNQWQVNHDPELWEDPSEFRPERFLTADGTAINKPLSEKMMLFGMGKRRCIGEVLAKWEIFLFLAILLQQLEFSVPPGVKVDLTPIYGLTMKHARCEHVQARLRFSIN
As to the kind of experiment: CYP inhibition in human liver microsomes, 1A2. Type of series: in vitro ADME. The note with it: pH 7.4, @ 10 μM concn. Put shortly: as §1

The target of series [4] is T4, CYP 2C19 (Homo sapiens, UniProt P33261).
T4 construct: from tissue; host or cells: human liver microsomes
T4 sequence (P33261 whole entry): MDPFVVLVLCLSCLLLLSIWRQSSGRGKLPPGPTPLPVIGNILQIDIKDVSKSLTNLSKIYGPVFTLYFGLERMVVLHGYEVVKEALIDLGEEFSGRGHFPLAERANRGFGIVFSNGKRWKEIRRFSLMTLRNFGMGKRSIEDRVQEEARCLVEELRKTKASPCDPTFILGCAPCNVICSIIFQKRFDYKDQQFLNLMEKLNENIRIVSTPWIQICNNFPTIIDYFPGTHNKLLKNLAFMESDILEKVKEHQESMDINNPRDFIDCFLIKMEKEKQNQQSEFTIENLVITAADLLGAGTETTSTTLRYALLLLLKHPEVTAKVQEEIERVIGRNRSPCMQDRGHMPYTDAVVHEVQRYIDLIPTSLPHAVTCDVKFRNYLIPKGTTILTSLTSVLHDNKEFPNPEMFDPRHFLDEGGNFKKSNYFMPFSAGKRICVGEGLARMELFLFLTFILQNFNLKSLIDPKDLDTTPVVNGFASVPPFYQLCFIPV
As to the kind of experiment: CYP inhibition in human liver microsomes, 2C19. Format: in vitro ADME. The note with it: pH 7.4, @ 10 μM concn. The procedure, abridged: as §1

The target in series [5] is T5, CYP 3A4 (Homo sapiens, UniProt P08684).
T5 construct: from tissue; host or cells: human liver microsomes
T5 sequence (P08684 whole entry): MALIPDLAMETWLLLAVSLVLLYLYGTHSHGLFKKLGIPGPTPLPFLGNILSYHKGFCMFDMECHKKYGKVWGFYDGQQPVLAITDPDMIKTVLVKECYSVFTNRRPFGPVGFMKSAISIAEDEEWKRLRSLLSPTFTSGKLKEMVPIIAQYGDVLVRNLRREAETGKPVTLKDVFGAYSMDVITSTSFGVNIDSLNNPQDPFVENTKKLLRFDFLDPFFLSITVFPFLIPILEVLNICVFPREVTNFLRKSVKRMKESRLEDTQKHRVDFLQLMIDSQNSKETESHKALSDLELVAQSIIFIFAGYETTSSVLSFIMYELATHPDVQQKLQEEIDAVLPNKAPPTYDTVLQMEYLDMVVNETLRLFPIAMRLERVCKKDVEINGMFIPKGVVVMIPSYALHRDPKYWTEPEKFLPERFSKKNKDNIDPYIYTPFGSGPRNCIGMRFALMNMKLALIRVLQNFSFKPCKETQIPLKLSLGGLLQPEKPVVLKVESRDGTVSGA
As to the kind of experiment: CYP inhibition in human liver microsomes, 3A4. Type of series: in vitro ADME. The note with it: pH 7.4, @ 10 μM concn. The procedure, abridged:
as §1

In series [6] the target is T6, CYP 2D6 (Homo sapiens, UniProt P10635).
T6 construct: from tissue; host or cells: human liver microsomes
T6 sequence (P10635 whole entry): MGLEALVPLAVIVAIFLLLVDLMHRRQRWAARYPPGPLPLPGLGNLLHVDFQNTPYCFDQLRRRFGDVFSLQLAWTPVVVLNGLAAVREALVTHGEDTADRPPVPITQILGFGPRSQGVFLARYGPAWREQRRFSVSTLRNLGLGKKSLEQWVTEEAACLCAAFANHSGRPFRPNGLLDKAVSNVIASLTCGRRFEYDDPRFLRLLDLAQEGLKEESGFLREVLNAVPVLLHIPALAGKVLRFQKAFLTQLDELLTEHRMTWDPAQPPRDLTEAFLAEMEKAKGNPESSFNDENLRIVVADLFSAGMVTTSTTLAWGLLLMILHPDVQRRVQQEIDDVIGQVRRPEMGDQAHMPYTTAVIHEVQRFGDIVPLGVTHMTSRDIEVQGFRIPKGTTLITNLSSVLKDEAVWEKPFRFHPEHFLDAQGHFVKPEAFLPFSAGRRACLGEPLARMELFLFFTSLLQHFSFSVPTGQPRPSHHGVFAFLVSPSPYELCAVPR
As to the kind of experiment: CYP inhibition in human liver microsomes, 2D6. The note with it: pH 7.4, @ 10 μM concn. Type of series: in vitro ADME. The procedure, abridged: as §1

Series [7] addresses T7, CYP 2C8 (Homo sapiens, UniProt P10632).
T7 construct: from tissue; host or cells: human liver microsomes
T7 sequence (P10632 1-490): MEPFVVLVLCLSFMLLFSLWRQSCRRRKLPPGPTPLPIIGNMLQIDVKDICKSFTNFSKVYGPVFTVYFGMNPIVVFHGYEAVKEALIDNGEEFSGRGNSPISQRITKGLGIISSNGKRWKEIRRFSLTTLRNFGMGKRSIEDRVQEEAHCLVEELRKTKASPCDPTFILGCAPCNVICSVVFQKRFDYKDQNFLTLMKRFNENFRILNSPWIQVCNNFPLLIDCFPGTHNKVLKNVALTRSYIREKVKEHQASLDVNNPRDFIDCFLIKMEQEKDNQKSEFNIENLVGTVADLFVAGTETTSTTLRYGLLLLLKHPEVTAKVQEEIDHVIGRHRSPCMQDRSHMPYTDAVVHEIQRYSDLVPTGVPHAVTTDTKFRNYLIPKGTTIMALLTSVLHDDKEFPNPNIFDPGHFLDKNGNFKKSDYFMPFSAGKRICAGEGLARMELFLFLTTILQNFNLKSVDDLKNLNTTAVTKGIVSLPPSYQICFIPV
The series is described as follows: CYP inhibition in human liver microsomes, 2C8. Format: in vitro ADME. The note with it: pH 7.4, @ 10 μM concn. Put shortly:
as §1

The term inhibition denotes the share of the control response that was lost under treatment. A lower inhibition goes with a weak effect. In general, IC50 refers to the concentration at which inhibition is half-maximal.

T1 sequence (P11712 whole entry): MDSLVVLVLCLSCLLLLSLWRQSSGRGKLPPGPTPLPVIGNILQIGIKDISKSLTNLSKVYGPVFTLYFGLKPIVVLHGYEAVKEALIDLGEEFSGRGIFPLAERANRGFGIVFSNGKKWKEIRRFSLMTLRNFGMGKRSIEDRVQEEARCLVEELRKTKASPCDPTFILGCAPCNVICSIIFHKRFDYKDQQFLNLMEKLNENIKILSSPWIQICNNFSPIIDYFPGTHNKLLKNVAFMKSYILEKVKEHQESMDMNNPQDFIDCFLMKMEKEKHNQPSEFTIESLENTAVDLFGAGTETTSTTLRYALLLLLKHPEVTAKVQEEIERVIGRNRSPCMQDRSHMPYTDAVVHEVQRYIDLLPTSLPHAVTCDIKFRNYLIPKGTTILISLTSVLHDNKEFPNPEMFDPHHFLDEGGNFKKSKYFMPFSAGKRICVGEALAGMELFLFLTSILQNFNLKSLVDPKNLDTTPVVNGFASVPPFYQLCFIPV

Turning to `C=CC(=O)N1CC2CC(n3nc(-c4ccc(-c5nnc(-c6ccccn6)o5)cc4)c4c(N)ncnc43)CC2C1` (centres unmarked) [Compound 26, 1-(5-(4-amino-3-(4-(5-(pyridin-2-yl)-1,3,4-oxadiazol-2-yl)phenyl)-1H-pyrazolo[3,4-d]pyrimidin-1-yl)hexahydrocyclopenta[c]pyrrol-2(1H)-yl)prop-2-en-1-one], the inhibition at 10 μM in series [1], in series [3], in series [4], in series [5], in series [6] and in series [7] was under 50% throughout. Moreover, the IC50 in series [2] was 1.1 nM.
Regarding `CN(C)C/C=C/C(=O)N1CC2CC(n3nc(-c4ccc(Oc5cccnc5)cc4)c4c(N)ncnc43)CC2C1` (centres unmarked) [Compound 53, (E)-1-(5-(4-amino-3-(4-(pyridin-3-yloxy)phenyl)-1H-pyrazolo[3,4-d]pyrimidin-1-yl)hexahydrocyclopenta[c]pyrrol-2(1H)-yl)-4-(dimethylamino)but-2-en-1-one], the inhibition at 10 μM in series [1] is under 50%; in series [3] it was under 50%; in series [4], under 50%; in series [5], over 50%; in series [6] it was under 50%; in series [7], under 50%. Further, the half-maximal inhibitory concentration (IC50) in series [2] is 10 nM.
With `C=CC(=O)N1CC2CN(c3ccc(Cn4nc(-c5ccc(Oc6ccccc6)cc5)c5c(N)ncnc54)cn3)CC2C1` (centres unmarked) [Compound 3, 1-(5-(5-((4-amino-3-(4-phenoxyphenyl)-1H-pyrazolo[3,4-d]pyrimidin-1-yl)methyl)pyridin-2-yl)hexahydropyrrolo[3,4-c]pyrrol-2(1H)-yl)prop-2-en-1-one], the inhibition at 10 μM is over 50% in series [1]; under 50% in series [3]; under 50% in series [4]; under 50% in series [5]; under 50% in series [6]; under 50% in series [7]. Moreover, in series [2], the IC50 turned out to be 8 nM.
Turning to `CN(C)C/C=C/C(=O)N1CC2CC(n3nc(-c4ccc(Oc5ccccn5)cc4)c4c(N)ncnc43)CC2C1` (centres unmarked) [Compound 47, (E)-1-(5-(4-amino-3-(4-(pyridin-2-yloxy)phenyl)-1H-pyrazolo[3,4-d]pyrimidin-1-yl)hexahydrocyclopenta[c]pyrrol-2(1H)-yl)-4-(dimethylamino)but-2-en-1-one], the inhibition at 10 μM in series [1], in series [3], in series [4], in series [5], in series [6] and in series [7] was under 50% throughout. The 50% inhibitory concentration (IC50) in series [2] came to 3 nM.
`C=CC(=O)N1CC2CC(n3nc(-c4ccc5nc(-c6ccccc6)oc5c4)c4c(N)ncnc43)CC2C1` (centres unmarked) [Compound 19, 1-(5-(4-amino-3-(2-phenylbenzo[d]oxazol-6-yl)-1H-pyrazolo[3,4-d]pyrimidin-1-yl)hexahydrocyclopenta[c]pyrrol-2(1H)-yl)prop-2-en-1-one]: the inhibition at 10 μM in series [1], in series [3], in series [4], in series [5], in series [6] and in series [7] was under 50% throughout. The IC50 in series [2] was 4 nM.
As for `C=CC(=O)N1CC2CC(n3nc(-c4ccc5nc(OC)sc5c4)c4c(N)ncnc43)CC2C1` (centres unmarked) [Compound 10, 1-(5-(4-amino-3-(2-methoxybenzo[d]thiazol-6-yl)-1H-pyrazolo[3,4-d]pyrimidin-1-yl)hexahydrocyclopenta[c]pyrrol-2(1H)-yl)prop-2-en-1-one], the inhibition at 10 μM in series [1] is under 50%; in series [3], under 50%; in series [4], under 50%; in series [5], over 50%; in series [6] it was over 50%; in series [7] it was over 50%. Also, the half-inhibitory concentration (IC50) in series [2] was found to be 25 nM.
For the compound `C=CC(=O)N1CC2CC(n3nc(-c4ccc(NC(=O)c5ccccc5)cc4)c4c(N)ncnc43)CC2C1` (centres unmarked) [Compound 38, N-(4-(1-(2-acryloyloctahydrocyclopenta[c]pyrrol-5-yl)-4-amino-1H-pyrazolo[3,4-d]pyrimidin-3-yl)phenyl)benzamide], the inhibition at 10 μM in series [1] is under 50%; in series [3], under 50%; in series [4], under 50%; in series [5], under 50%; in series [6] it was over 50%; in series [7], under 50%. Also, the IC50 in series [2] was 17 nM.
Turning to `C=CC(=O)N1CC2CC(n3nc(-c4ccc(Oc5ccccc5)c(OC)c4)c4c(N)ncnc43)CC2C1` (centres unmarked) [Compound 12, 1-(5-(4-amino-3-(3-methoxy-4-phenoxyphenyl)-1H-pyrazolo[3,4-d]pyrimidin-1-yl)hexahydrocyclopenta[c]pyrrol-2(1H)-yl)prop-2-en-1-one], the inhibition at 10 μM is over 50% in series [1]; under 50% in series [3]; under 50% in series [4]; over 50% in series [5]; under 50% in series [6]; over 50% in series [7]. For the same compound, the IC50 in series [2] was determined as 37 nM.
As to `C=CC(=O)N1CC2CC(n3nc(-c4ccc(/C(=N/c5cc(C)ccn5)OC)cc4)c4c(N)ncnc43)CC2C1` (centres unmarked) [Compound 41, (Z)-methyl 4-(1-(2-acryloyloctahydrocyclopenta[c]pyrrol-5-yl)-4-amino-1H-pyrazolo[3,4-d]pyrimidin-3-yl)-N-(4-methylpyridin-2-yl)benzimidate], the inhibition at 10 μM was under 50% in series [1]; under 50% in series [3]; under 50% in series [4]; over 50% in series [5]; under 50% in series [6]; under 50% in series [7]. Besides, in series [2], the IC50 was 3.5 nM.
Regarding `CO/C(=N\c1cc(C)ccn1)c1ccc(-c2nn(C3CC4CN(C(=O)/C=C/CN(C)C)CC4C3)c3ncnc(N)c23)cc1` (centres unmarked) [Compound 50, (Z)-methyl 4-(4-amino-1-(2-((E)-4-(dimethylamino)but-2-enoyl)octahydrocyclopenta[c]pyrrol-5-yl)-1H-pyrazolo[3,4-d]pyrimidin-3-yl)-N-(4-methylpyridin-2-yl) benzimidate], the inhibition at 10 μM in series [1] was under 50%; in series [3], under 50%; in series [4], under 50%; in series [5] it was over 50%; in series [6], over 50%; in series [7], under 50%. The IC50 in series [2] was determined as 19 nM.
Regarding `CN(C)C/C=C/C(=O)N1CC2CC(n3nc(-c4ccc(Oc5ccccc5)cc4)c4c(N)ncnc43)CC2C1` (centres unmarked) [Compound 24, (E)-1-(5-(4-amino-3-(4-phenoxyphenyl)-1H-pyrazolo[3,4-d]pyrimidin-1-yl)hexahydrocyclopenta[c]pyrrol-2(1H)-yl)-4-(dimethylamino)but-2-en-1-one], the inhibition at 10 μM in series [1], in series [3], in series [4], in series [5], in series [6] and in series [7] was under 50% each time. In addition, the IC50 in series [2] was found to be 2.5 nM.
